Drawing on ChEMBL document CHEMBL4483862, “Open-source discovery of chemical leads for next-generation chemoprotective antimalarials” (2018), this text covers IC50 and IC90 for 35 molecules.

The experiment has as its system Plasmodium berghei. The experiment is described as follows: Luciferase/luciferin-expressing antifolate-resistant parasites were used to infect a culture of HepG2 cells that were pre-incubated with compounds. Infected hepatocytes emit light due to the luciferase reaction. Assay results are presented as the percent inhibition of light emission compared to control. […]. Conditions: sporozoite; for IC90: read-out: LUCIFERASE INFECTION ASSAY - IC90. Type of experiment: functional.

The mark [1] stands for this setting: read-out: LUCIFERASE INFECTION ASSAY - IC50.

In general, IC50 refers to the midpoint of a concentration-inhibition curve. As a reminder, the IC90 is the concentration needed for an effect of 90%. `O=[N+]([O-])c1ccc(Sc2ccc(F)cc2)c2nonc12`: the IC90 is above 11.3 µM. Besides, the IC50 (FFLUC_HILL_SLOPE 1.53, FFLUC_R_SQUARED 0.17, HEPG2TOX_HILL_SLOPE 11.1, HEPG2TOX_R_SQUARED 0.647, PBLUC_HILL_SLOPE 22.5, PBLUC_R_SQUARED 0.184, read-out: LUCIFERASE INFECTION ASSAY - IC50) stood at 10.5 µM.
For `Cc1cccc(C)c1NC(=O)NCCSCc1c(Cl)cccc1Cl`, the IC90 was above 8.61 µM. Also, the IC50 under setting [1] is above 8.61 µM.
Regarding `Cc1oc(C(C)(C)C)cc1-c1cc(NC(=O)Nc2ccccc2C#N)n(-c2cc(C(F)(F)F)cc(C(F)(F)F)c2)n1`, the IC90 was found to be 3 µM. Moreover, under “HEPG2TOX_HILL_SLOPE 5.04, HEPG2TOX_R_SQUARED 0.982, PBLUC_HILL_SLOPE 7.22, PBLUC_R_SQUARED 0.381, read-out: LUCIFERASE INFECTION ASSAY - IC50”, the IC50 was 2.22 µM.
As for `COC(=O)c1ccc(S(=O)(=O)N2c3ccccc3CCC2C)cc1` (stereo not given), the IC90 is above 10 µM. Besides, the IC50 under setting [1] was above 10 µM.
On to `Cc1ccc(S(=O)(=O)Nc2cc(SCC(=O)O)c(O)c3ccccc23)cc1`, for which the IC90 was above 10 µM. Moreover, the IC50 (PBLUC_HILL_SLOPE 1.74, PBLUC_R_SQUARED 0.143, read-out: LUCIFERASE INFECTION ASSAY - IC50) was above 10 µM.
Consider `Cc1cc(C2=NNC(=NC3CC3)SC2)c(C)n1-c1ccc2c(c1)OCO2`, for which the IC90 stood at 9.71 µM. Further, the IC50 (FFLUC_HILL_SLOPE 2.46, FFLUC_R_SQUARED 0.719, PBLUC_HILL_SLOPE 1.67, PBLUC_R_SQUARED 0.595, read-out: LUCIFERASE INFECTION ASSAY - IC50) stood at 2.61 µM.
As for `COc1cc(-c2cc(-c3cc(OC)c(OC)c(OC)c3)cnc2N)ccc1O`, the IC90 was found to be 6.84 µM. Also, the IC50 (PBLUC_HILL_SLOPE 4.32, PBLUC_R_SQUARED 0.78, read-out: LUCIFERASE INFECTION ASSAY - IC50) is 4.12 µM.
As to `Cc1cc(NC(=O)c2cc(-c3cccs3)nc3ccccc23)n(-c2ccccn2)n1`, the IC90 turned out to be 4.61 µM. Further, the IC50 (HEPG2TOX_HILL_SLOPE 1.34, HEPG2TOX_R_SQUARED 0.908, PBLUC_HILL_SLOPE 3.47, PBLUC_R_SQUARED 0.53, read-out: LUCIFERASE INFECTION ASSAY - IC50) was 2.45 µM.
Consider `O=C(NNc1ccc(F)cc1)c1cccc(S(=O)(=O)N2CCc3ccccc3C2)c1`, for which the IC90 was above 10 µM. Also, for the setting “PBLUC_HILL_SLOPE 14.9, PBLUC_R_SQUARED 0.744, read-out: LUCIFERASE INFECTION ASSAY - IC50”, the IC50 amounted to 9.22 µM.
In the case of `C(=N\Nc1ncnc2sc3c(c12)CCCC3)/c1c(-c2ccccc2)n(-c2ccccc2)c2ccccc12`, the IC90 was above 10 µM. Besides, the IC50 under setting [1] is above 10 µM.
For `COc1cc(C(=O)NC(c2ccccc2)c2ccc(C)cc2)ccc1OCC(=O)N1CCOCC1` (stereo not given), the IC90 is above 10 µM. Moreover, the IC50 under setting [1] was above 10 µM.
In the case of `COC(=O)c1cc(C(=O)OC)cc(-n2c(C)cc(C(=O)Cn3ncc(Cl)c(Cl)c3=O)c2C)c1`, the IC90 came to 4.48 µM. Moreover, where the note is “FFLUC_HILL_SLOPE 11.1, FFLUC_R_SQUARED 0.501, HEPG2TOX_HILL_SLOPE 4.27, HEPG2TOX_R_SQUARED 0.789, PBLUC_HILL_SLOPE 11.5, PBLUC_R_SQUARED 0.682, read-out: LUCIFERASE INFECTION ASSAY - IC50”, the IC50 amounted to 3.7 µM.
As for `CC(C)(C)NC(=O)c1cc(-c2ccccc2Cl)nc2ccccc12`, the IC90 was above 9.74 µM. Further, under setting [1], the IC50 was above 9.74 µM.
For `Cc1cc(C)c(C)c(S(=O)(=O)N2CCN(S(=O)(=O)c3ccc(C(C)C)cc3)CC2)c1C`, the IC90 is above 10 µM. For the same molecule, where the note is “PBLUC_HILL_SLOPE 10.5, PBLUC_R_SQUARED 0.247, read-out: LUCIFERASE INFECTION ASSAY - IC50”, the IC50 turned out to be 8.75 µM.
As to `O=C(Nc1nc(-c2c[nH]c3ccccc23)cs1)C1CCN(S(=O)(=O)/C=C/c2ccccc2)CC1`, the IC90 was above 10 µM. Also, the IC50 (FFLUC_HILL_SLOPE 3.31, FFLUC_R_SQUARED 0.738, HEPG2TOX_HILL_SLOPE 1.04, HEPG2TOX_R_SQUARED 0.854, PBLUC_HILL_SLOPE 3.38, PBLUC_R_SQUARED 0.26, read-out: LUCIFERASE INFECTION ASSAY - IC50) stood at 5.31 µM.
With `O=c1c2cc(Cl)cc(Cl)c2nc(-c2cccc(C(F)(F)F)c2)n1O`, the IC90 was above 8.8 µM. For the same molecule, the IC50 (HEPG2TOX_HILL_SLOPE 1.01, HEPG2TOX_R_SQUARED 0.454, PBLUC_HILL_SLOPE 14.5, PBLUC_R_SQUARED 0.382, read-out: LUCIFERASE INFECTION ASSAY - IC50) is 8.11 µM.
Take `COc1ccccc1-[n+]1c(C)cc(C=C2Sc3ccc4ccccc4c3N2C)cc1C`: the IC90 stood at 0.611 µM. The IC50 (HEPG2TOX_HILL_SLOPE 0.863, HEPG2TOX_R_SQUARED 0.853, PBLUC_HILL_SLOPE 2.28, PBLUC_R_SQUARED 0.851, read-out: LUCIFERASE INFECTION ASSAY - IC50) is 0.233 µM.
For the molecule `NC(=NC(=S)Nc1cc(Cl)ccc1Cl)c1ccccc1`, the IC90 is above 10.2 µM. Moreover, where the note is “HEPG2TOX_HILL_SLOPE 6.22, HEPG2TOX_R_SQUARED 0.375, read-out: LUCIFERASE INFECTION ASSAY - IC50”, the IC50 is above 10.2 µM.
`COc1cccc(-c2cc3c(Nc4cccc(N(C)C)c4)nccc3n2C)c1`: the IC90 is 8.25 µM. Moreover, the IC50 (PBLUC_HILL_SLOPE 3.57, PBLUC_R_SQUARED 0.3, read-out: LUCIFERASE INFECTION ASSAY - IC50) was 4.46 µM.
Consider `N#Cc1ncn(CC(=O)NCC2(N3CCOCC3)CCCCC2)n1`, for which the IC90 is above 10 µM. Further, the IC50 (HEPG2TOX_HILL_SLOPE 0.0925, HEPG2TOX_R_SQUARED 0.157, read-out: LUCIFERASE INFECTION ASSAY - IC50) is above 10 µM.
As for `O=C(CCc1nc2ccccc2n(CCc2ccccc2)c1=O)N1CCC1`, the IC90 was above 10 µM. For the same molecule, the IC50 under setting [1] is above 10 µM.
For the molecule `COc1cncc(-c2cncc(Nc3ccc(C(C)C)cc3)c2)c1`, the IC90 was found to be 5.21 µM. Besides, under “PBLUC_HILL_SLOPE 9.07, PBLUC_R_SQUARED 0.477, read-out: LUCIFERASE INFECTION ASSAY - IC50”, the IC50 was 4.09 µM.
In the case of `c1cncc(-c2nc(Nc3ccc4n[nH]cc4c3)c3ccccc3n2)c1`, the concentration for an effect of 90% (IC90) is 3.39 µM. The IC50 (HEPG2TOX_HILL_SLOPE 1.55, HEPG2TOX_R_SQUARED 0.922, PBLUC_HILL_SLOPE 123, PBLUC_R_SQUARED 0.319, read-out: LUCIFERASE INFECTION ASSAY - IC50) is 3.33 µM.
For the molecule `COC(=O)c1cc(NC(=O)C(C)(C)Oc2ccc(Cl)cc2)ccc1F`, the IC90 was above 10 µM. In addition, under “PBLUC_HILL_SLOPE 3.63, PBLUC_R_SQUARED 0.0477, read-out: LUCIFERASE INFECTION ASSAY - IC50”, the IC50 was above 10 µM.
With `COc1cc(/C=N/NC(=S)NC2CC3CC2C2C=CCC32)ccc1O` (stereo not given), the IC90 was above 9.23 µM. For the same molecule, the IC50 (PBLUC_HILL_SLOPE 5.25, PBLUC_R_SQUARED 0.0239, read-out: LUCIFERASE INFECTION ASSAY - IC50) was above 9.23 µM.
On to `CC(C)(C)c1ccc(C(=N)SC(C(=O)C(F)(F)F)c2ccccc2)cc1` (stereo not given), for which the IC90 stood at 2.03 µM. The IC50 (FFLUC_HILL_SLOPE 64.5, FFLUC_R_SQUARED 0.585, PBLUC_HILL_SLOPE 1.09, PBLUC_R_SQUARED 0.88, read-out: LUCIFERASE INFECTION ASSAY - IC50) was determined as 0.269 µM.
Regarding `CN(C)c1cccc(-c2cnc3sc(NCc4cccnc4)nn23)c1`, the concentration for an effect of 90% (IC90) was above 9.42 µM. Besides, under setting [1], the IC50 is above 9.42 µM.
As for `CN1C(=O)N(Cc2ccc3ccccc3c2)C(=O)C12CCN(Cc1cnn(-c3ccc(F)cc3)c1)CC2`, the IC90 is 2.54 µM. Also, for the setting “HEPG2TOX_HILL_SLOPE 1.74, HEPG2TOX_R_SQUARED 0.906, PBLUC_HILL_SLOPE 10.4, PBLUC_R_SQUARED 0.489, read-out: LUCIFERASE INFECTION ASSAY - IC50”, the IC50 worked out at 2.06 µM.
Take `COc1ccc(CNC(=O)c2ccc3c(c2)NC(=O)C(C)S3)cc1OC` (stereo not given): the IC90 is above 10 µM. Under setting [1], the IC50 is above 10 µM.
Regarding `CC(=O)OC1CCC2(C)C3CCC4(C)C(C5=CC(=O)OC5)CCC4(O)C3CCC2(O)C1` (stereo not given), the concentration for an effect of 90% (IC90) is above 7.63 µM. Besides, the IC50 (HEPG2TOX_HILL_SLOPE 2.67, HEPG2TOX_R_SQUARED 0.733, PBLUC_HILL_SLOPE 2.15, PBLUC_R_SQUARED 0.208, read-out: LUCIFERASE INFECTION ASSAY - IC50) came out at 3 µM.
On to `Cc1nccnc1-c1ccnn1C(=O)Nc1cc(Cl)cc(Cl)c1`, for which the IC90 was 0.481 µM. The IC50 (HEPG2TOX_HILL_SLOPE 3.03, HEPG2TOX_R_SQUARED 0.982, PBLUC_HILL_SLOPE 8.5, PBLUC_R_SQUARED 0.804, read-out: LUCIFERASE INFECTION ASSAY - IC50) is 0.372 µM.
With `COc1ccc(COC(=O)Cc2c(C)[nH]c(-c3ccccn3)nc2=O)cc1OC`, the IC90 is 8.13 µM. Also, for the setting “PBLUC_HILL_SLOPE 4.54, PBLUC_R_SQUARED 0.664, read-out: LUCIFERASE INFECTION ASSAY - IC50”, the IC50 came out at 5.01 µM.
For the molecule `CN(C)c1cccc(Nc2nccc3[nH]c(-c4cccc(F)c4)cc23)c1`, the IC90 was 1.41 µM. Besides, under “HEPG2TOX_HILL_SLOPE 2.36, HEPG2TOX_R_SQUARED 0.936, PBLUC_HILL_SLOPE 7.91, PBLUC_R_SQUARED 0.783, read-out: LUCIFERASE INFECTION ASSAY - IC50”, the IC50 came to 1.07 µM.
For the molecule `O=C(/C=C/c1ccc(-c2ccccc2Cl)s1)N1CCN(c2ncccn2)CC1`, the IC90 was above 10 µM. The IC50 (HEPG2TOX_HILL_SLOPE 11.1, HEPG2TOX_R_SQUARED 0.736, PBLUC_HILL_SLOPE 11.3, PBLUC_R_SQUARED 0.239, read-out: LUCIFERASE INFECTION ASSAY - IC50) stood at 9.23 µM.
As to `Cc1nc(C(N)=NOC(=O)c2c(-c3ccccc3Cl)noc2C)cs1`, the IC90 was above 8.76 µM. For the same molecule, the IC50 under setting [1] was above 8.76 µM.
